Results on seven molecules are retold here after ChEMBL document CHEMBL1155310, “Synthesis and evaluation of 2-amino-dihydrotetrabenzine derivatives as probes for imaging vesicular monoamine transporter-2” (Bioorg Med Chem Lett, 2009).

Series [1] has as its target T1, Synaptic vesicular amine transporter (Rattus norvegicus, UniProt Q01827). As to the kind of experiment: Displacement of [3H]-DTBZ from VMAT2 in rat striatal membrane homogenates. The class given is cell membranes, Striatum. (Loss of bound radioactivity is the signal in a displacement assay; it reports binding, not function.)
The target of series [2] is T1, Synaptic vesicular amine transporter. The series is described as follows: Displacement of [125I]-iodovinyl-TBZ from VMAT2 in rat striatal membrane homogenates. It is filed as cell membranes, Striatum.
Series [3] deals with Synaptic vesicular amine transporter (Homo sapiens, UniProt Q05940). As to the kind of experiment: Binding affinity to VMAT2.
Series [4] is described as follows: Ratio of drug level in striatum to cerebellum in iv dosed mouse after 30 mins. The class given is ADME, organism-based. The conditions noted are these: in vivo, 0.5 h.

pKi: −log10 of the molar value.

T1 sequence (Q01827 whole entry): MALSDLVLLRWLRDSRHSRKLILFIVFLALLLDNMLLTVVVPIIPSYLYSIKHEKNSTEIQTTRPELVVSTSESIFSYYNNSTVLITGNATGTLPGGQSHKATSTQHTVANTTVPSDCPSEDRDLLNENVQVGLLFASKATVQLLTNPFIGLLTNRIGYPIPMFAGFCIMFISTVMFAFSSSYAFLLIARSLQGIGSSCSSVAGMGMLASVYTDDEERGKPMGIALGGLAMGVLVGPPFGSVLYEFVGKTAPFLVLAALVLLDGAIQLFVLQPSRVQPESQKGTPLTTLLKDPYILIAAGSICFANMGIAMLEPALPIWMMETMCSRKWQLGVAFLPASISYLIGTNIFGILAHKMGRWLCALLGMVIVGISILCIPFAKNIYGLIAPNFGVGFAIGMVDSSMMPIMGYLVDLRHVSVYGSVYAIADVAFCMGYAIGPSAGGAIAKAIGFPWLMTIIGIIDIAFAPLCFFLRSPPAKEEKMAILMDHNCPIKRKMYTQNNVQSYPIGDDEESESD
Sequence of Synaptic vesicular amine transporter (Homo sapiens, UniProt Q05940) (Q05940 whole entry): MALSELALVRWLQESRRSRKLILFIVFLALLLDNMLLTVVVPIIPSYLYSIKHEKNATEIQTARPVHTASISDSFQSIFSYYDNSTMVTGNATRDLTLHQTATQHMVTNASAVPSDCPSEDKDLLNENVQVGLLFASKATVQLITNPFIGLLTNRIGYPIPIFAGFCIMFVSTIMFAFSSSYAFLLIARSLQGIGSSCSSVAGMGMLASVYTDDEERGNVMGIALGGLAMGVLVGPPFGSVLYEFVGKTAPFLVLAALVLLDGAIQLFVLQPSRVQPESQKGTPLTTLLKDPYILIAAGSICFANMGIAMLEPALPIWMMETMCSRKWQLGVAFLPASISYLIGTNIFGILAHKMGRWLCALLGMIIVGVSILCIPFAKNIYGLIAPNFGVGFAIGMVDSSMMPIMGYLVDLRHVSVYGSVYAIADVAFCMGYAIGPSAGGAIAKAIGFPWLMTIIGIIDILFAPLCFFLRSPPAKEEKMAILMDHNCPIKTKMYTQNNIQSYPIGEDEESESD

A word on the pKi: it is −log10 of the Ki, conventionally taken in molar units. High values mean a small Ki, low ones a large Ki. As to `COc1cc2c(cc1OC)C1CC(NCCF)C(CC(C)C)CN1CC2` (single isomer, unassigned; diastereomer 2), the negative-log Ki (pKi) is 6.16 in series [1] and 6.65 in series [2].
For `COc1cc2c(cc1OC)C1CC(NCCCF)C(CC(C)C)CN1CC2` (stereo unspecified), the results for the pKi in series [1] and in series [2] were 8.15 and 8.06, respectively.
Taken in the same sequence, the figures for `COc1cc2c(cc1OC)C1CC(NCCF)C(CC(C)C)CN1CC2` (mixture of isomers) were 6.64 and 7.55.
In the case of `COc1cc2c(cc1OC)C1CC(N)C(CC(C)C)CN1CC2` (stereo unspecified), the pKi in series [1] is 6.82; in series [2] it was 7.35.
Regarding `COc1cc2c(cc1OCCCF)CCN1C[C@@H](CC(C)C)[C@H](O)C[C@H]21` [FLORBENAZINE], the negative logarithm of the Ki (pKi) in series [3] is 10.00; in series [1], 9.44; in series [2] it was 9.62. The Ratio in series [4] is 4.51.
For the molecule `CNC1CC2c3cc(OC)c(OC)cc3CCN2CC1CC(C)C` (stereo unspecified), the pKi is 6.57 in series [1] and 6.70 in series [2].
Turning to `COc1cc2c(cc1OC)C1CC(NCCF)C(CC(C)C)CN1CC2` (stereo in doubt; 4-I), the pKi in series [1] is 8.06; in series [2], 8.04.
